The results in this text go back to patent publication US12528802B2, “Heterocyclic compound” (Takeda Pharmaceutical Company Limited, priority 2019, dated 2026).

SMILES strings stand for the structures.

In the assay the target is T1, glucosylceramide synthase (Homo sapiens, UniProt Q16739).
T1 construct: made in house; host or cells: Expi293F cells (transient expression, pcDNA3.3-TOPO vector); microsome fraction used as enzyme source
T1 sequence (Q16739 1-394): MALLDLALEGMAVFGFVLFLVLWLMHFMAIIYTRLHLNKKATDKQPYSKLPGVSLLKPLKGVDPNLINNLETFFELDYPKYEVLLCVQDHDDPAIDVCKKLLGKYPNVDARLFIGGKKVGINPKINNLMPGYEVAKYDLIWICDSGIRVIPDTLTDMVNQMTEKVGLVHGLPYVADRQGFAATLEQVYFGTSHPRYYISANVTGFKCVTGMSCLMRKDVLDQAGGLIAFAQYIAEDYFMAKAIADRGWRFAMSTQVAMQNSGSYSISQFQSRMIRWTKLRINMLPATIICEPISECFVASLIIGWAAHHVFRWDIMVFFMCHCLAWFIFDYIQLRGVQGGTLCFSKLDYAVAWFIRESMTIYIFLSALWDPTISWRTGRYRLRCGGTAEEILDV
The assay is described as follows: Glucosylceramide synthase (GCS) enzyme assay, microsome fraction, C8 glucosylceramide quantified by Rapidfire MS/MS. The class given is biochemical. The following applies: test compound 10 μM; 1.7 μM UDP-glucose, 3 μM C8 ceramide; room temperature 60 min; read-out: GCS enzyme inhibitory rate at 10 μM (%) (% of control). As to the method:
Glucosylceramide Synthase (GCS) Assay
In enzyme assay, a microsome fraction obtained by transient expression by Expi293F™ cells (catalog number: A14527, Thermo Fisher Scientific) was used as a glucosylceramide synthase source. Liposomal C8 ceramide and UDP-glucose were used as substrates. […] After the enzymatic reaction, the analysis was performed with Rapidfire MS/MS (API-4000™, SCIEX), and C8 glucosylceramide was quantified to evaluate the inhibitory activity of the test compound against glucosylceramide synthase activity.
PcDNA3.3TOPO vector (catalog number: K830001, Thermo Fisher Scientific) into which the human GCS gene was inserted was introduced into Expi293F™ Cells (catalog number: A14527, Thermo Fisher Scientific) by using ExpiFectamine™ 293 Transfection Kit (catalog number: A14525, Thermo Fisher Scientific). The cultured cells were dissolved in D-PBS (catalog number: 048-29805, Fuji Film Wako Pure Chemical Industries, Ltd.) containing 1 mM PMSF, and the solution was allowed to stand on ice for 30 minutes, and then subjected to cell disruption (homogenized). The disruption solution was centrifuged at 10,000×g for 20 minutes at 4° C., and the obtained supernatant was centrifuged at 142,400×g for 60 minutes at 4° C. The obtained precipitate was resuspended in a D-PBS solution containing 1 mM PMSF, and homogenized again to prepare as a microsome fraction. Protein quantification was performed by the CBB method.
A 1 mM compound solution prepared by dissolving the test compound in DMSO was added to a 384-well plate by 100 nL so that the final concentration of the test compound was 10 μM. Next, a substrate solution consisting of 3.4 μM UDP-glucose and 6 μM C8 ceramide was added by 5 μL, followed by an enzyme solution consisting of a 25 μg/mL microsome fraction by 5 μL. C8 ceramide was prepared from liposomes composed of 15 mol % C8 ceramide and 85 mol % dioleoyl phosphatidylcholine (1,2-dioleoyl-sn-glycero-3-phosphocholine: DOPC). The enzymatic reaction was carried out in a solution consisting of 20 mM tris-hydrochloric acid buffer (pH 7.5), 0.01% Tween 20, 0.01% bovine serum albumin and 1 mM dithiothreitol at room temperature for 60 min. Then, a solution consisting of 75% isopropanol and 1% formic acid containing 0.25 μM N-Octadecanoyl-D35-psichosine (catalog number: 1914, Matreya) as an internal standard substance was added by 60 μL to stop the enzymatic reaction. 5 μL of the centrifugal supernatant of the obtained reaction product was analyzed by Rapidfire MS/MS (Agilent Technologies) using API-4000™ (SCIEX), and the C8 glucosylceramide was quantified to evaluate the inhibitory activity of the test compound against the glucosylceramide synthase activity. The inhibitory activity of the test compound was evaluated when the C8 glucosylceramide level in the enzyme-free solution was considered as 100% inhibitory and the enzyme activity of the DMSO group in the absence of the compound was considered as 0% inhibitory.
Take `COc1ccccc1-c1nccc2c1CN(c1ccc(OC(F)(F)F)cc1)C2=O` [Example 3, 4-(2-methoxyphenyl)-2-[4-(trifluoromethoxy)phenyl]-2,3-dihydro-1H-pyrrolo[3,4-c]pyridin-1-one]: the inhibition at 10 µM came to 98%.
In the case of `COc1ccccc1-c1nccc2c1CN(c1ccc(C3CC3)cc1)C2=O` [Example 4, 2-(4-cyclopropylphenyl)-4-(2-methoxyphenyl)-2,3-dihydro-1H-pyrrolo[3,4-c]pyridin-1-one], the inhibition at 10 µM was 99%.
Turning to `COc1ccccc1-c1nccc2c1CN(c1ccc(Oc3ccccc3)cc1)C2=O` [Example 5, 4-(2-methoxyphenyl)-2-(4-phenoxyphenyl)-2,3-dihydro-1H-pyrrolo[3,4-c]pyridin-1-one], the inhibition at 10 µM worked out at 100%.
On to `COc1ccccc1-c1nccc2c1CN(c1ccc(C(F)(F)F)cc1)C2=O` [Example 6, 4-(2-methoxyphenyl)-2-[4-(trifluoromethyl)phenyl]-2,3-dihydro-1H-pyrrolo[3,4-c]pyridin-1-one], for which the inhibition at 10 µM is 95%.
On to `COc1cc(F)ccc1-c1nccc2c1CN(c1ccc(F)cc1)C2=O` [Example 7, 4-(4-fluoro-2-methoxyphenyl)-2-(4-fluorophenyl)-2,3-dihydro-1H-pyrrolo[3,4-c]pyridin-1-one], for which the inhibition at 10 µM came to 70%.
On to `O=C1c2ccnc(-c3ccc(F)cc3OCC(F)(F)F)c2CN1c1ccc(F)cc1` [Example 13, 2-(4-fluorophenyl)-4-[4-fluoro-2-(2,2,2-trifluoroethoxy)phenyl]-2,3-dihydro-1H-pyrrolo[3,4-c]pyridin-1-one], for which the inhibition at 10 µM came out at 63%.
Regarding `O=C1c2ccnc(-c3ccc(F)cc3OCC(F)F)c2CN1c1ccc(F)cc1` [Example 16, 4-[2-(2,2-difluoroethoxy)-4-fluorophenyl]-2-(4-fluorophenyl)-2,3-dihydro-1H-pyrrolo[3,4-c]pyridin-1-one], the inhibition at 10 µM was found to be 73%.
Turning to `COc1ccccc1-c1nccc2c1CN(c1ccc(C#N)cc1)C2=O` [Example 18, 4-[4-(2-methoxyphenyl)-1-oxo-1,3-dihydro-2H-pyrrolo[3,4-c]pyridin-2-yl]benzonitrile], the inhibition at 10 µM was found to be 56%.
Next, `COc1ccccc1-c1nccc2c1CN(c1ccc(C)cc1)C2=O` [Example 23, 4-(2-methoxyphenyl)-2-(4-methylphenyl)-2,3-dihydro-1H-pyrrolo[3,4-c]pyridin-1-one]: 99%; `COc1ccc(N2Cc3c(ccnc3-c3ccccc3OC)C2=O)cc1` [Example 24, 4-(2-methoxyphenyl)-2-(4-methoxyphenyl)-2,3-dihydro-1H-pyrrolo[3,4-c]pyridin-1-one]: 89%.
Regarding `COc1ccccc1-c1nccc2c1CN(c1ccc(OC(F)F)cc1)C2=O` [Example 25, 2-[4-(difluoromethoxy)phenyl]-4-(2-methoxyphenyl)-2,3-dihydro-1H-pyrrolo[3,4-c]pyridin-1-one], the inhibition at 10 µM was 99%.
On to `COc1ccccc1-c1nccc2c1CN(c1ccc(OC(F)(F)F)nc1)C2=O` [Example 26, 4-(2-methoxyphenyl)-2-[6-(trifluoromethoxy)pyridin-3-yl]-2,3-dihydro-1H-pyrrolo[3,4-c]pyridin-1-one], for which the inhibition at 10 µM came to 92%.
As to `COc1ccccc1-c1nccc2c1CN(c1ccc(OC(F)F)nc1)C2=O` [Example 27, 2-[6-(difluoromethoxy)pyridin-3-yl]-4-(2-methoxyphenyl)-2,3-dihydro-1H-pyrrolo[3,4-c]pyridin-1-one], the inhibition at 10 µM was 93%.
On to `O=C1c2ccnc(-c3ccccc3OC(F)F)c2CN1c1ccc(F)cc1` [Example 28, 4-[2-(difluoromethoxy)phenyl]-2-(4-fluorophenyl)-2,3-dihydro-1H-pyrrolo[3,4-c]pyridin-1-one], for which the inhibition at 10 µM is 84%.
Next, `COc1ccccc1-c1nccc2c1CN(c1ccc(OC(F)(F)F)cn1)C2=O` [Example 29, 4-(2-methoxyphenyl)-2-[5-(trifluoromethoxy)pyridin-2-yl]-2,3-dihydro-1H-pyrrolo[3,4-c]pyridin-1-one]: 96%.
Next, `O=C1c2ccnc(-c3ccccc3N3CCOCC3)c2CN1c1ccc(F)cc1` [Example 30, 2-(4-fluorophenyl)-4-[2-(morpholin-4-yl)phenyl]-2,3-dihydro-1H-pyrrolo[3,4-c]pyridin-1-one]: 91%; `CSc1ccccc1-c1nccc2c1CN(c1ccc(F)cc1)C2=O` [Example 31, 2-(4-fluorophenyl)-4-[2-(methylsulfanyl)phenyl]-2,3-dihydro-1H-pyrrolo[3,4-c]pyridin-1-one]: 93%.
Next, `COc1ccccc1-c1nccc2c1CN(c1ccc(C(F)(F)F)cn1)C2=O` [Example 32, 4-(2-methoxyphenyl)-2-[5-(trifluoromethyl)pyridin-2-yl]-2,3-dihydro-1H-pyrrolo[3,4-c]pyridin-1-one]: 93%.
`COc1cnc(C)cc1-c1nccc2c1CN(c1ccc(F)cc1)C2=O` [Example 33, 2-(4-fluorophenyl)-4-(5-methoxy-2-methylpyridin-4-yl)-2,3-dihydro-1H-pyrrolo[3,4-c]pyridin-1-one]: the inhibition at 10 µM is 68%.
Next, `COC(=O)c1ccc(-c2nccc3c2CN(c2ccc(F)cc2)C3=O)c(OC(F)F)c1` [Example 34, methyl 3-(difluoromethoxy)-4-[2-(4-fluorophenyl)-1-oxo-2,3-dihydro-1H-pyrrolo[3,4-c]pyridin-4-yl]benzoate]: 83%; `COc1ccccc1-c1nccc2c1CN(c1ccc(OC(F)F)cn1)C2=O` [Example 39, 2-[5-(difluoromethoxy)pyridin-2-yl]-4-(2-methoxyphenyl)-2,3-dihydro-1H-pyrrolo[3,4-c]pyridin-1-one]: 93%; `NC(=O)c1ccc(-c2nccc3c2CN(c2ccc(F)cc2)C3=O)c(OC(F)F)c1` [Example 40, 3-(difluoromethoxy)-4-[2-(4-fluorophenyl)-1-oxo-2,3-dihydro-1H-pyrrolo[3,4-c]pyridin-4-yl]benzamide]: 54%.
With `O=C1c2ccnc(-c3ccccc3OCC(F)(F)F)c2CN1c1ccc(F)cc1` [Example 42, 2-(4-fluorophenyl)-4-[2-(2,2,2-trifluoroethoxy)phenyl]-2,3-dihydro-1H-pyrrolo[3,4-c]pyridin-1-one], the inhibition at 10 µM was found to be 94%.
Regarding `COc1ccccc1-c1nccc2c1CN(c1ccc(F)cn1)C2=O` [Example 43, 2-(5-fluoropyridin-2-yl)-4-(2-methoxyphenyl)-2,3-dihydro-1H-pyrrolo[3,4-c]pyridin-1-one], the inhibition at 10 µM was determined as 95%.
Next, `Cn1ccc(N2Cc3c(ccnc3-c3ccc(F)cc3OCC(F)(F)F)C2=O)n1` [Example 45, 4-[4-fluoro-2-(2,2,2-trifluoroethoxy)phenyl]-2-(1-methyl-1H-pyrazol-3-yl)-2,3-dihydro-1H-pyrrolo[3,4-c]pyridin-1-one]: 89%.
Next, `CCOC(=O)c1ccc(-c2nccc3c2CN(c2ccc(F)cc2)C3=O)c(OC)c1` [Example 48, ethyl 4-[2-(4-fluorophenyl)-1-oxo-2,3-dihydro-1H-pyrrolo[3,4-c]pyridin-4-yl]-3-methoxybenzoate]: 70%.
For the compound `COc1ccccc1-c1nccc2c1CN(c1ccc(OCC(F)(F)F)cc1)C2=O` [Example 50, 4-(2-methoxyphenyl)-2-[4-(2,2,2-trifluoroethoxy)phenyl]-2,3-dihydro-1H-pyrrolo[3,4-c]pyridin-1-one], the inhibition at 10 µM stood at 99%.
